Data: ChEMBL document CHEMBL1134802, “Biphenyls as surrogates of the steroidal backbone. Part 1: synthesis and estrogen receptor affinity of an original series of polysubstituted biphenyls” (Bioorg Med Chem Lett, 2001)

These compounds were tested against T1, Estrogen receptor (Homo sapiens) (UniProt P03372) (assay: Receptor binding affinity (RBA) to human recombinant estrogen receptor alpha (REH) after 24 hours at 0 degree Centigrade).
T1 sequence (whole entry): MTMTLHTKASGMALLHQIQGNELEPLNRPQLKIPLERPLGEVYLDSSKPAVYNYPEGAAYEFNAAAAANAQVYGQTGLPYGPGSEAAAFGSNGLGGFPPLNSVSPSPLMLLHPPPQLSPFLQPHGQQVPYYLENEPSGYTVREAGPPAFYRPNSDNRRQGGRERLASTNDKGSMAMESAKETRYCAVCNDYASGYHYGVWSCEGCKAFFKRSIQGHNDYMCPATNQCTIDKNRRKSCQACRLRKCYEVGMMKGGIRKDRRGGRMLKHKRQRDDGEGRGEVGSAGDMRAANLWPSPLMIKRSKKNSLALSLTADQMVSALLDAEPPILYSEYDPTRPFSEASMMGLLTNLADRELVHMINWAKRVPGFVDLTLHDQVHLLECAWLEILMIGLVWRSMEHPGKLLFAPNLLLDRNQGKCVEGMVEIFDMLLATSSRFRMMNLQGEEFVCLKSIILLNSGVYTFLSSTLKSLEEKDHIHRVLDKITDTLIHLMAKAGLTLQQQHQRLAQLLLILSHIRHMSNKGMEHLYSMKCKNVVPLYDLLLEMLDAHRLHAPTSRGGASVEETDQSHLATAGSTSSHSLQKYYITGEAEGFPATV

Row | Compound | Activity [%]
1 | OCc1cc(Br)c(-c2ccc(O)cc2)c(I)c1 | 41
2 | OCc1ccc(-c2ccc(O)cc2)c(Cl)c1 | 2
3 | COc1cc(CO)cc(Cl)c1-c1ccc(O)cc1 | 2.5
4 | OCc1cc(Cl)c(-c2ccc(O)cc2)c(-c2ccc(O)cc2)c1 | 1
5 | OCc1cc(Br)c(-c2ccc(O)cc2)c(-n2cccc2)c1 | 2
6 | OCc1ccc(-c2c(Cl)c(Cl)c(O)c(Cl)c2Cl)cc1 | 0
7 | OCc1ccc(-c2cc(Br)c(O)c(Br)c2)cc1 | 0
8 | OCc1cc(Cl)c(-c2ccc(O)cc2)c(C(F)(F)F)c1 | 50
9 | CN(C)C#Cc1cc(CO)cc(Br)c1-c1ccc(O)cc1 | 0.2
10 | OCc1cc(F)c(-c2ccc(O)cc2)c(F)c1 | 0.93
11 | COc1cc(CO)cc(OC)c1-c1ccc(O)cc1 | 0.24
12 | OCc1ccc(-c2ccc(O)cc2)c(-c2ccc(O)cc2)c1 | 1
13 | O=[N+]([O-])c1cc(CO)cc(Br)c1-c1ccc(O)cc1 | 34
14 | OCc1cc(Cl)c(-c2ccc(O)cc2Cl)c(Cl)c1 | 21
15 | OCc1cc(Cl)c(-c2ccc(O)cc2)c(Cl)c1 | 34
16 | O=[N+]([O-])c1cc(CO)cc([N+](=O)[O-])c1-c1ccc(O)cc1 | 5
17 | OCc1ccc(-c2ccc(O)cc2Cl)cc1 | 0.03
18 | OCc1c(Cl)c(Cl)c(-c2ccc(O)cc2)c(Cl)c1Cl | 5.4
19 | OCc1ccc(-c2ccc(O)cc2)c(C(F)(F)F)c1 | 9.5
20 | Nc1cc(CO)cc(Br)c1-c1ccc(O)cc1 | 0.03
21 | Nc1cc(CO)cc([N+](=O)[O-])c1-c1ccc(O)cc1 | 0.03
22 | OCc1ccc(-c2c(Cl)cc(O)cc2Cl)cc1 | 0.4
23 | OCc1cc(Cl)c(-c2ccc(O)c(Cc3ccccc3)c2)c(Cl)c1 | 0.07
24 | CC(C)c1cc(CO)cc(Cl)c1-c1ccc(O)cc1 | 22
25 | Cc1cc(-c2ccc(CO)cc2)cc(C)c1O | 0
26 | Cc1cc(O)cc(C)c1-c1ccc(CO)cc1 | 0.06
27 | CSc1cc(CO)cc(Br)c1-c1ccc(O)cc1 | 4.5
28 | Cc1cc(CO)cc(C)c1-c1ccc(O)cc1 | 0.8

What follows are compounds tested against T1, Estrogen receptor (Homo sapiens) (assay: Binding affinity for human estrogen receptor alpha after 3 hr at 0C).

Row | Compound | Activity [%]
29 | OCc1cc(Cl)c(-c2ccc(O)cc2)c(Cl)c1 | 104
30 | O=[N+]([O-])c1cc(CO)cc([N+](=O)[O-])c1-c1ccc(O)cc1 | 24
31 | OCc1ccc(-c2ccc(O)cc2)c(C(F)(F)F)c1 | 33
32 | OCc1cc(Br)c(-c2ccc(O)cc2)c(Br)c1 | 425

These compounds were tested against T1, Estrogen receptor (Homo sapiens) (assay: Binding affinity for human estrogen receptor alpha after 24 hr r at 0C).

Row | Compound | Activity [%]
33 | OCc1cc(Br)c(-c2ccc(O)cc2)c(Br)c1 | 106
